From US9850225B2, “Compounds useful as immunomodulators” (BRISTOL-MYERS SQUIBB COMPANY, priority 2014, dated 2017)

What follows are compounds tested against PD-1/PD-L1 interaction (PD-1-Ig / PD-L1-His) (Homo sapiens (Human), UniProt Q9NZQ7) (assay: PD-1/PD-L1 Homogenous Time-Resolved Fluorescence (HTRF) binding assay). Settings: PD-1/PD-L1 HTRF binding assay; numeric value; read-out: Range or IC50.
PD-1/PD-L1 interaction (PD-1-Ig / PD-L1-His), sequence (Q9NZQ7 other isoform, or with tags, fused parts or gaps): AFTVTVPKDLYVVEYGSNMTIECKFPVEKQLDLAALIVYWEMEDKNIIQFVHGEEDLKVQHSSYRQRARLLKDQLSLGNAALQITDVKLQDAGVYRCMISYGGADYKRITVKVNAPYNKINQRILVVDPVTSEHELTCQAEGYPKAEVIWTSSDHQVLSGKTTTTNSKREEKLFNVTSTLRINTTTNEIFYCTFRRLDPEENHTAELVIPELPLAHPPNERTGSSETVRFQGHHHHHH
In short: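 Human PD-L1-His (10 nM final) was pre-incubated with inhibitor for 15 min, then PD-1-Ig (20 nM final) was added for a further 15 min in dPBS with 0.1% BSA and 0.05% Tween-20. Binding was detected by HTRF using Eu-cryptate anti-Ig (1 nM) and APC anti-His (20 nM).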
`CC(=O)NCCNCc1ccc(OCc2cccc(-c3ccccc3)c2C)cc1OCc1cc(C#N)ccc1F` [Example 1095, N-(2-((2-((5-cyano-2-fluorobenzyl)oxy)-4-((2-methyl-[1,1′-biphenyl]-3-yl)methoxy)benzyl)amino)ethyl)acetamide] gave an IC50 of 0.0813 µM.

Same assay, conditions: PD-1/PD-L1 HTRF binding assay; value given as range class; read-out: Range or IC50
For `CSCC[C@H](NCc1cc(Cl)c(OCc2cccc(-c3ccc4c(c3)OCCO4)c2C)cc1OCc1cccc(C#N)c1)C(=O)O` [Example 1202, (S)-2-((5-chloro-2-((3-cyanobenzyl)oxy)-4-((3-(2,3-dihydrobenzo[b][1,4]dioxin-6-yl)-2-methylbenzyl)oxy)benzyl)amino)-4-(methylthio)butanoic acid], the IC50 was 0.01 to 0.1 µM. `C[C@](CO)(NCc1cc(Cl)c(OCc2cccc(-c3ccc4c(c3)OCCO4)c2C#N)cc1OCc1cccc(C#N)c1)C(=O)O` [Example 1241, (R)-2-((5-chloro-4-((2-cyano-3-(2,3-dihydrobenzo[b][1,4]dioxin-6-yl)benzyl)oxy)-2-((3-cyanobenzyl)oxy)benzyl)amino)-3-hydroxy-2-methylpropanoic acid] was tested, and the IC50 was 0.0006 to 0.01 µM. `Cc1c(COc2cc(OCc3cncc(Br)c3)c(CN[C@](C)(CO)C(=O)O)cc2Cl)cccc1-c1ccc2c(c1)OCCO2` [Example 1254, (R)-2-(2-((5-bromopyridin-3-yl)methoxy)-5-chloro-4-(3-(2,3-dihydrobenzo[b][1,4]dioxin-6-yl)-2-methylbenzyloxy)benzylamino)-3-hydroxy-2-methylpropanoic acid] was tested, and the IC50 was 0.0006 to 0.01 µM. `COc1cc(OCc2cccc(-c3ccccc3)c2C)cc(OCc2cccc(C#N)c2)c1CNC(C)(CO)C(=O)O` (centres unmarked) [Example 1137, 2-((2-((3-cyanobenzyl)oxy)-6-methoxy-4-((2-methyl-[1,1′-biphenyl]-3-yl)methoxy)benzyl)amino)-3-hydroxy-2-methylpropanoic acid] was tested, and the IC50 was 0.0006 to 0.01 µM. For `Cc1c(COc2cc(OCc3cccc(C#N)c3)c(CN[C@](C)(CO)C(=O)O)cc2Br)cccc1-c1ccc2c(c1)OCCO2` [Example 1303, (R)-2-((5-bromo-2-((3-cyanobenzyl)oxy)-4-((3-(2,3-dihydrobenzo[b][1,4]dioxin-6-yl)-2-methylbenzyl)oxy)benzyl)amino)-3-hydroxy-2-methylpropanoic acid], the IC50 was 0.0006 to 0.01 µM. With `CC(=O)NCCNCc1ccc(OCc2cccc(-c3ccccc3)c2C)cc1OCc1ccccc1C` [Example 1045, N-(2-((4-((2-methyl-[1,1′-biphenyl]-3-yl)methoxy)-2-((2-methylbenzyl)oxy)benzyl)amino)ethyl)acetamide] the IC50 was 0.1 to 20 µM. `Cc1cc(CN[C@H](CO)C(=O)O)c(OCc2cncc(C#N)c2)cc1OCc1cccc(-c2ccc3c(c2)OCCO3)c1Cl` [Example 1153, (R)-2-(4-(2-chloro-3-(2,3-dihydrobenzo[b][1,4]dioxin-6-yl)benzyloxy)-2-((5-cyanopyridin-3-yl)methoxy)-5-methylbenzylamino)-3-hydroxypropanoic acid] showed an IC50 of 0.0006 to 0.01 µM. Compound `CC(=O)NCCNCc1ccc(OCc2cccc(-c3ccccc3)c2C)cc1OCc1cc(F)cc(Cl)c1` [Example 1091, N-(2-((2-((3-chloro-5-fluorobenzyl)oxy)-4-((2-methyl-[1,1′-biphenyl]-3-yl)methoxy)benzyl)amino)ethyl)acetamide] has an IC50 of 0.1 to 20 µM. Work on `COc1ccc(COc2cc(OCc3cccc(-c4ccccc4)c3C)ccc2CNCCNC(C)=O)cc1` [Example 1090, N-(2-((2-((4-methoxybenzyl)oxy)-4-((2-methyl-[1,1′-biphenyl]-3-yl)methoxy)benzyl)amino)ethyl)acetamide] yielded an IC50 of 0.1 to 20 µM. Work on `CC(=O)NCCNCc1ccc(OCc2cccc(-c3ccc4c(c3)OCCO4)c2C)cc1OCc1cc(C#N)ccn1` [Example 1130, N-(2-(2-((4-cyanopyridin-2-yl)methoxy)-4-(3-(2,3-dihydrobenzo[b][1,4]dioxin-6-yl)-2-methylbenzyloxy)benzylamino)ethyl)acetamide] yielded an IC50 of 0.01 to 0.1 µM.
